# In article PMC4088988 (Bioorganic & medicinal chemistry, 2013):
# “Also recorded” adds a separate entry of the source.
# What was measured:
# [1] = tested on: glucocorticoid response element (GRE); test: Transactivation assay, GRE-luciferase reporter in HEK-293 cells; format: cell-based; conditions: HEK-293 GRE-luciferase, 0.01 to 100 μg/ml, 6 h
# GR = biological target: T1, GR (Homo sapiens, UniProt P04150); test: GR Nuclear Translocation PathHunter assay; format: cell-based; conditions: for Rank GR translocation: rank among tested compounds; for GR translocation activity: Fig. 3
# T1 sequence (P04150 1-777): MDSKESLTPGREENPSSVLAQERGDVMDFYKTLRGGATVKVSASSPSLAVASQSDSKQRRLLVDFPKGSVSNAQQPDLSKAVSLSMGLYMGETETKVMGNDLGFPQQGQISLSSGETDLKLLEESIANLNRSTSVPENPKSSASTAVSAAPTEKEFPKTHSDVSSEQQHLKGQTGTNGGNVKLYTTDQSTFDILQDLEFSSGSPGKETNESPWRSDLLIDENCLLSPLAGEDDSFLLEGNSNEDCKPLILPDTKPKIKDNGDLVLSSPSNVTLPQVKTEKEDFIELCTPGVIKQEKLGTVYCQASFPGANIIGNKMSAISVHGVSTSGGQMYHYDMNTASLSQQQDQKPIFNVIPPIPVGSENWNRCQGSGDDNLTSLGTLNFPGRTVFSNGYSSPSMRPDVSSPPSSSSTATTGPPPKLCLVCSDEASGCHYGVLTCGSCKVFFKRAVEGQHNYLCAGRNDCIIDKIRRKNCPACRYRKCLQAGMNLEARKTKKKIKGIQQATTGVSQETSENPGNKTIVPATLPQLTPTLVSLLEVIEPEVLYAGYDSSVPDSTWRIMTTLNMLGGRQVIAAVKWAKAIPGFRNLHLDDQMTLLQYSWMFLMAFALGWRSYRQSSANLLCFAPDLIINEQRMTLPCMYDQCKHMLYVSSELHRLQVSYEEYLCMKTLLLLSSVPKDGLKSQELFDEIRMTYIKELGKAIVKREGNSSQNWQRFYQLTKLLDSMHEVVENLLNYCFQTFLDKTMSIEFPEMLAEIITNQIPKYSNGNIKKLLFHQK
# [2] = tested on: glucocorticoid receptor (GR); conditions: cited from earlier work
# [3] = tested on: mineralocorticoid receptor (MR); conditions: cited from earlier work
# NF-κB = format: cell-based; conditions: C2C12 myoblasts and myotubes, Fig. 2/3
# [4] = Pharmacokinetics in CD1 mice, IV and PO; format: in vivo; conditions: for AUC0, total, unbound / Cmax, total, unbound: Table 4
# [5] = Pharmacokinetics in Sprague–Dawley rats, IV and PO; format: in vivo
# [6] = Pharmacokinetics in beagle dogs, IV and PO; format: in vivo
# [7] = Metabolic stability in rat liver microsomes; format: in vitro ADME; conditions: 60 min, NADPH
# CYP1A2 = CYP1A2 induction in human hepatocytes; format: in vitro ADME; conditions: three human hepatocyte donors, 1, 10, 100 μM, relative to omeprazole
# CYP3A4 = CYP3A4 induction in human hepatocytes; format: in vitro ADME; conditions: three human hepatocyte donors, 1, 10, 100 μM, % of positive control rifampin
# Ames test = conditions: Positive/negative
# Micronucleus test = conditions: Positive/negative
# [8] = Metabolite identification in human hepatocytes; format: in vitro ADME; conditions: 10 μM, 2 and 4 h
# [9] = Metabolite identification in monkey hepatocytes; format: in vitro ADME; conditions: 10 μM, 2 and 4 h
# [10] = Metabolite identification in dog hepatocytes; format: in vitro ADME; conditions: 10 μM, 2 and 4 h
# [11] = Metabolite identification in rat hepatocytes; format: in vitro ADME; conditions: 10 μM, 2 and 4 h
# [12] = single administration, cited from earlier work
# [13] = CD1 mice, IV 10 mg/kg, 10 mg/kg
structure (smiles),measurement,setting,value
"C[C@]12C=CC(=O)C=C1CC[C@@H]1[C@@H]2C(=O)C[C@@]2(C)[C@H]1CC[C@]2(O)C(=O)CO [Prednisone, reference compound]",GRE-dependent gene transcription (luciferase),[1],induced luciferase expression
C[C@]12CCC(=O)C=C1CC[C@@H]1C2=CC[C@@]2(C)[C@H]1CC[C@]2(O)C(=O)CO [VBP1],Rank GR translocation,GR,6
same,binding to the GR,[2],relatively high affinity binding
same,binding to the MR,[3],relatively high affinity binding
C[C@@H]1C[C@H]2[C@@H]3CCC4=CC(=O)C=C[C@]4(C)C3=CC[C@]2(C)[C@H]1C(=O)CO [VBP6],NF-κB inhibition activity,NF-κB,high activities
same,GR translocation activity,GR,high activities
same,Rank GR translocation,GR,4
same,AUC/D,"[4]; CD1 mice, IV 10 mg/kg",345 ng·h/mL
same,AUC/D,"[4]; CD1 mice, PO 50 mg/kg, 30% Labrafil",440 ng·h/mL
CC(=O)OCC(=O)[C@H]1[C@H](C)C[C@H]2[C@@H]3CCC4=CC(=O)C=C[C@]4(C)C3=CC[C@@]21C [VBP7],NF-κB inhibition activity,NF-κB,high activities
same,GR translocation activity,GR,high activities
same,Rank GR translocation,GR,7
C[C@@H]1C[C@H]2[C@@H]3CCC4=CC(=O)C=C[C@]4(C)C3=CC[C@]2(C)[C@@]1(O)C(=O)CO [VBP15],NF-κB inhibition activity,NF-κB,high activities
same,GR translocation activity,GR,high activities
same,GRE-dependent gene transcription (luciferase),[1],lack of transactivation properties; also recorded: lacks GRE-mediated transcriptional activity
same,Clobs,[4]; [13],18.8 (IV) mL/min/kg
same,Vssobs,[4]; [13],0.757 (IV) L/kg
same,"AUC0, total, unbound",[4]; Mouse 10 mpk IV,8842 (IV) h ng/mL
same,"Cmax, total, unbound",[4]; Mouse 10 mpk IV,11167 (IV) ng/mL
same,"AUC0, total, unbound",[4]; Mouse 50 mpk PO,32932 (PO) h ng/mL
same,"Cmax, total, unbound","[4]; Mouse 50 mpk PO, 50 mg/kg",6787 (PO) ng/mL
same,"AUC0, total, unbound",[5]; Rat 10 mpk IV,8339 (IV) h ng/mL
same,"AUC0, total, unbound",[5]; Rat 50 mpk PO,19937 (PO) h ng/mL
same,"Cmax, total, unbound","[5]; Rat 50 mpk PO, 50 mg/kg",2543 (PO) ng/mL
same,"AUC0, total, unbound",[6]; Dog 10 mpk IV,6791 (IV) h ng/mL
same,"AUC0, total, unbound",[6]; Dog 30 mpk PO,10844 (PO) h ng/mL
same,"Cmax, total, unbound","[6]; Dog 30 mpk PO, 30 mg/kg",814 (PO) ng/mL
same,"Stability–microsomes, remaining at 1 h",[7],Rat = 35.4%
same,CYP1A2 induction,CYP1A2,no induction
same,CYP3A4 induction,CYP3A4,24–42%
same,Ames test,Ames test,Negative
same,Micronucleus test,Micronucleus test,Negative
same,number of metabolites identified,[8],Four
same,number of metabolites identified,[9],Four
same,number of metabolites identified,[10],3
same,number of metabolites identified,[11],5
"CC(=O)OCC(=O)[C@@]1(O)CC[C@@H]2[C@H]3CCC4=CC(=O)CC[C@]4(C)C3=CC[C@@]21C [anecortave acetate, [2-[(8R,10S,13S,14R,17R)-17-hydroxy-10,13-dimethyl-3-oxo-2,6,7,8,12,14,15,16-octahydro-1H-cyclopenta[a]phenanthren-17-yl]-2-oxo-ethyl] acetate, reference compound]",reduction in IOP,[12]; best dose,31%
same,mean duration of IOP benefit,[12],56 days
same,binding to the GR,[2],relatively high affinity binding
same,binding to the MR,[3],relatively high affinity binding
"C[C@]12C=CC(=O)C=C1CC[C@@H]1[C@@H]2[C@@H](O)C[C@@]2(C)[C@H]1CC[C@]2(O)C(=O)CO [prednisolone, reference compound]",GRE-dependent gene transcription (luciferase),[1],significant dose-dependent response
